{"source": "patent US20180353483A1", "about": "“PHARMACEUTICAL COMPOSITIONS AND METHODS FOR INDOLEAMINE, 2, 3-DIOXYGENASE INHIBITION AND INDICATIONS THEREFOR” (Incyte Corporation, priority 2015, published 2018)", "type_in_all_cases": "in vivo", "key": {"[1]": {"test": "Preclinical PK, renal excretion after IV dose, mice"}, "[2]": {"test": "Preclinical PK, beagle dogs"}, "[3]": {"test": "Preclinical PK, cynomolgus monkeys"}}}
{"smiles": "NS(=O)(=O)NCCNc1nonc1C(=NO)Nc1ccc(F)c(Br)c1", "note": "[Compound 1, 4-({2-[(aminosulfonyl)amino]ethyl}amino)-N-(3-bromo-4-fluorophenyl)-N′-hydroxy-1,2,5-oxadiazole-3-carboximidamide]", "values": [{"measurement": "renal excretion of unchanged compound", "setting": "[1]", "value": "less than 3 % of IV dose"}, {"measurement": "systemic clearance in percent hepatic blood flow", "setting": "[2]; beagle dog", "value": 26, "unit": "%"}, {"measurement": "fraction of oral dose absorbed (Fa)", "setting": "[2]; beagle dogs, estimated from preclinical PK studies (not shown)", "value": 81, "unit": "%"}, {"measurement": "renal excretion of unchanged compound", "setting": "[2]; dogs", "value": "less than 3 % of IV dose"}, {"measurement": "systemic clearance in percent hepatic blood flow", "setting": "[3]; cynomolgus monkey", "value": 31, "unit": "%"}, {"measurement": "fraction of oral dose absorbed (Fa)", "setting": "[3]; cynomolgus monkeys, estimated from preclinical PK studies (not shown)", "value": 48, "unit": "%"}, {"measurement": "renal excretion of unchanged compound", "setting": "[3]; monkeys", "value": "less than 3 % of IV dose"}]}
